# Target: HPK1 (Homo sapiens (Human), UniProt Q92918)
# Experiment: HPK1 Kinase Binding Assay (LanthaScreen Eu-Anti GST antibody / tracer 222)
# Conditions: active HPK1 (SignalChem M23-11G), tracer 222, one hour incubation at 25° C.
# Protocol: A stock solution of 1 mM test compound was prepared in DMSO. The compound plate was prepared by 3-fold and 11-point serial dilutions. 0.1 μL of the compound in DMSO was transferred from the compound plate to the white 384 well polystyrene plates. The assay buffer contained 50 mM HEPES, pH 7.5, 0.01% Tween-20, 5 mM MgCl2, 0.01% BSA, and 5 mM DTT. 5 μl of 4 nM active HPK1 (SignalChem M23-11G) prepared in the buffer was added to the plate. The enzyme concentration given was based on the given stock concentration reported by the vender. 5 μl of 18 nM tracer 222 (ThermoFisher PV6121) and 4 nM LanthaScreen Eu-Anti GST antibody (ThermoFisher PV5595) were added. After one hour incubation at 25° C., the plates were read on a PHERAstar FS plate reader (BMG Labtech). Ki values were determined.
# Chain of HPK1 (Q92918 1-346): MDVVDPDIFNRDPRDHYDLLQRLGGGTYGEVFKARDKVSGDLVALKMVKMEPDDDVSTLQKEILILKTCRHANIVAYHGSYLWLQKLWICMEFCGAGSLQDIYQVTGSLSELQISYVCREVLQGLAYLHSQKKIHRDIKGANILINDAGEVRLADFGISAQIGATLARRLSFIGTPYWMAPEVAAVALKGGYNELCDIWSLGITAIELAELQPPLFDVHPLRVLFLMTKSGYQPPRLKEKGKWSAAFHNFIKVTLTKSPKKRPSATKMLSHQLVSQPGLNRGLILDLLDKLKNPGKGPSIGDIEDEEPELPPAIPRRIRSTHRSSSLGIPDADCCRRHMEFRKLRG
row,Ki,Compound
1,≤ 100 nM,"COc1cccc(F)c1-n1cc2c(-c3ccc(N4CCN(C)CC4)cc3)n[nH]c2cc1=O [Example 5, 5-(2-Fluoro-6-methoxyphenyl)-3-[4-(4-methylpiperazin-1-yl)phenyl]-1,5-dihydro-6H-pyrazolo[4,3-c]pyridin-6-one]"
2,≤ 100 nM,"CN1CCN(c2ccc(-c3n[nH]c4cc(=O)n(-c5cccc6c5CCNC6)cc34)cc2)CC1 [Example 6, 3-[4-(4-Methylpiperazin-1-yl)phenyl]-5-(1,2,3,4-tetrahydroisoquinolin-5-yl)-1,5-dihydro-6H-pyrazolo[4,3-c]pyridin-6-one]"
3,≤ 100 nM,"COc1ccccc1-n1cc2c(-c3ccc(N4CCN(C)CC4)cc3)n[nH]c2cc1=O [Example 4, 5-(2-Methoxyphenyl)-3-[4-(4-methylpiperazin-1-yl)phenyl]-1,5-dihydro-6H-pyrazolo[4,3-c]pyridin-6-one]"
4,≤ 100 nM,"Cc1ccccc1-n1cc2c(-c3ccc(N4CCN(C)CC4)cc3)n[nH]c2cc1=O [Example 3, 3-[4-(4-Methylpiperazin-1-yl)phenyl]-5-(o-tolyl)-1,5-dihydro-6H-pyrazolo[4,3-c]pyridin-6-one]"
5,100 to 500 nM,"CC1OCCCC1n1cc2c(-c3ccc(N4CCN(C)CC4)cc3)n[nH]c2cc1=O (stereo not shown) [Example 16, 3-[4-(4-Methylpiperazin-1-yl)phenyl]-5-(2-methyltetrahydro-2H-pyran-3-yl)-1,5-dihydro-6H-pyrazolo[4,3-c]pyridin-6-one]"
6,≤ 100 nM,"CC(c1ccccc1C(F)(F)F)n1cc2c(-c3ccc(N4CCN(C)CC4)cc3)n[nH]c2cc1=O (stereo not shown) [Example 13, 3-[4-(4-Methylpiperazin-1-yl)phenyl]-5-{1-[2-(trifluoromethyl)phenyl]ethyl}-1,5-dihydro-6H-pyrazolo[4,3-c]pyridin-6-one]"
7,≤ 100 nM,"CC(c1ccccc1)n1cc2c(-c3ccc(N4CCN(C)CC4)cc3)n[nH]c2cc1=O (stereo not shown) [Example 14, 3-[4-(4-Methylpiperazin-1-yl)phenyl]-5-(1-phenylethyl)-1,5-dihydro-6H-pyrazolo[4,3-c]pyridin-6-one]"
8,500 to 3000 nM,"CN1CCN(c2ccc(-c3n[nH]c4cc(=O)n(C5CCN(C)C5=O)cc34)cc2)CC1 (stereo not shown) [Example 15, 5-(1-Methyl-2-oxopyrrolidin-3-yl)-3-[4-(4-methylpiperazin-1-yl)phenyl]-1,5-dihydro-6H-pyrazolo[4,3-c]pyridin-6-one]"
9,100 to 500 nM,"CN1CCN(c2ccc(-c3n[nH]c4cc(=O)n(Cc5ccccc5)cc34)cc2)CC1 [Example 11, 5-Benzyl-3-[4-(4-methylpiperazin-1-yl)phenyl]-1,5-dihydro-6H-pyrazolo[4,3-c]pyridin-6-one]"
10,100 to 500 nM,"CN1CCN(c2ccc(-c3n[nH]c4cc(=O)n(C5CCCCC5)cc34)cc2)CC1 [Example 9, 5-Cyclohexyl-3-[4-(4-methylpiperazin-1-yl)phenyl]-1,5-dihydro-6H-pyrazolo[4,3-c]pyridin-6-one]"
11,≤ 100 nM,"CN1CCN(c2ccc(-c3n[nH]c4cc(=O)n(-c5ccccc5F)cc34)cc2)CC1 [Example 2, 5-(2-Fluorophenyl)-3-[4-(4-methylpiperazin-1-yl)phenyl]-1,5-dihydro-6H-pyrazolo[4,3-c]pyridin-6-one]"
12,500 to 3000 nM,"CN1CCN(c2ccc(-c3n[nH]c4cc(=O)n(C5CCOC5)cc34)cc2)CC1 (stereo not shown) [Example 10, 3-[4-(4-Methylpiperazin-1-yl)phenyl]-5-(tetrahydrofuran-3-yl)-1,5-dihydro-6H-pyrazolo[4,3-c]pyridin-6-one]"
13,100 to 500 nM,"CN1CCN(c2ccc(-c3n[nH]c4cc(=O)n(CC5CCCCC5)cc34)cc2)CC1 [Example 12, 5-(Cyclohexylmethyl)-3-[4-(4-methylpiperazin-1-yl)phenyl]-1,5-dihydro-6H-pyrazolo[4,3-c]pyridin-6-one]"
14,≤ 100 nM,"CN1CCN(c2ccc(-c3n[nH]c4cc(=O)n(-c5cccc6c5OCCO6)cc34)cc2)CC1 [Example 7, 5-(2,3-Dihydrobenzo[b][1,4]dioxin-5-yl)-3-[4-(4-methylpiperazin-1-yl)phenyl]-1,5-dihydro-6H-pyrazolo[4,3-c]pyridin-6-one]"
15,≤ 100 nM,"CN1CCN(c2ccc(-c3n[nH]c4cc(=O)n(-c5ncccc5F)cc34)cc2)CC1 [Example 8, 5-(3-Fluoropyridin-2-yl)-3-[4-(4-methylpiperazin-1-yl)phenyl]-1,5-dihydro-6H-pyrazolo[4,3-c]pyridin-6-one]"
16,100 to 500 nM,"CN1CCN(c2ccc(-c3n[nH]c4cc(=O)n(-c5ccccc5)cc34)cc2)CC1 [Example 1, 3-[4-(4-Methylpiperazin-1-yl)phenyl]-5-phenyl-1,5-dihydro-6H-pyrazolo[4,3-c]pyridin-6-one]"
